Experimental data as given in ChEMBL document CHEMBL1909046, “DrugMatrix in vitro pharmacology data”.
Where a SMILES comes first, the peptide text is derived from it. Bridges are numbered along the chain shown (N, C = ends). [ ]: non-standard residue; d: D form. The star is where a group is joined. Threoninol(2S,3R) = C[C@@H](O)[C@H](CO)N*

Key:
[1] = biological target: Mitogen-activated protein kinase 1 (Homo sapiens, UniProt P28482); test: DRUGMATRIX: Protein Serine/Threonine Kinase, ERK2 enzyme inhibition (substrate: Myelin Basic Protein); set-up: species or system Escherichia coli; settings: Not Active = under 50% inhibition at 10 µM
[2] = biological target: T1, Alpha-2A adrenergic receptor (Homo sapiens, UniProt P08913); assay type: cell membranes, Sf9, Membrane; settings: sf9; note: in other assays of this panel Not Active means under 50% inhibition at 10 µM
T1 sequence (P08913 whole entry): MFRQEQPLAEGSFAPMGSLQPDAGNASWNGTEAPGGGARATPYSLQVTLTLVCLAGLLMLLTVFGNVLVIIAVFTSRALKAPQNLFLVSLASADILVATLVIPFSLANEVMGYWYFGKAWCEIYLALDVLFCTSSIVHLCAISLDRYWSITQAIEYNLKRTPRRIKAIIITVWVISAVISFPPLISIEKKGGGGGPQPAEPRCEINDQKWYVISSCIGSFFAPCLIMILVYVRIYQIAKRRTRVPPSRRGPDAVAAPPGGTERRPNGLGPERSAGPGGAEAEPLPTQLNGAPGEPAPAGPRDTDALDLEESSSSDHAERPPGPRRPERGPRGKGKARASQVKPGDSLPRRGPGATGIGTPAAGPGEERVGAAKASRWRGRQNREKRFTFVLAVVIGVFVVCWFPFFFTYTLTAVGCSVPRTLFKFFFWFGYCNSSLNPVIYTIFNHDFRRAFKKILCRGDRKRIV

Calcitonin receptor = biological target: T2, Calcitonin receptor (Homo sapiens, UniProt P30988); assay type: cell membranes, Membrane; settings: t47d; note: in other assays of this panel Not Active means under 50% inhibition at 10 µM
T2 sequence (P30988 whole entry): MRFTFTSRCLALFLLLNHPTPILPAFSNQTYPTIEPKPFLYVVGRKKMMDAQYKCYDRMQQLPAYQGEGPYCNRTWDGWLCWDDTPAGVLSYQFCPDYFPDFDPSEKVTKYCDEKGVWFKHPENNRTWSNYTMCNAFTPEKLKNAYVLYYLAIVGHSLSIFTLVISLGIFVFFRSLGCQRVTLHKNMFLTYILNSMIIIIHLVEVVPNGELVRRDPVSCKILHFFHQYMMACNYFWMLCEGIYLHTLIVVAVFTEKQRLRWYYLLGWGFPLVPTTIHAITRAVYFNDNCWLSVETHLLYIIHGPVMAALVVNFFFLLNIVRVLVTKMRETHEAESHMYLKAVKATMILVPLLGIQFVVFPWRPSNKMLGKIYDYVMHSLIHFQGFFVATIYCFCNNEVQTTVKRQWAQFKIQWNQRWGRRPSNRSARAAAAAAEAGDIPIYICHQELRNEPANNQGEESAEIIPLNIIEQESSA

[3] = biological target: T3, 5-hydroxytryptamine receptor 2C (Homo sapiens, UniProt P28335); test: DRUGMATRIX: Serotonin (5-Hydroxytryptamine) 5-HT2C radioligand binding (ligand: [3H] Mesulergine); assay type: cell membranes, CHO-K1, Membrane; settings: cho-k1; Not Active = under 50% inhibition at 10 µM
T3 sequence (P28335 whole entry): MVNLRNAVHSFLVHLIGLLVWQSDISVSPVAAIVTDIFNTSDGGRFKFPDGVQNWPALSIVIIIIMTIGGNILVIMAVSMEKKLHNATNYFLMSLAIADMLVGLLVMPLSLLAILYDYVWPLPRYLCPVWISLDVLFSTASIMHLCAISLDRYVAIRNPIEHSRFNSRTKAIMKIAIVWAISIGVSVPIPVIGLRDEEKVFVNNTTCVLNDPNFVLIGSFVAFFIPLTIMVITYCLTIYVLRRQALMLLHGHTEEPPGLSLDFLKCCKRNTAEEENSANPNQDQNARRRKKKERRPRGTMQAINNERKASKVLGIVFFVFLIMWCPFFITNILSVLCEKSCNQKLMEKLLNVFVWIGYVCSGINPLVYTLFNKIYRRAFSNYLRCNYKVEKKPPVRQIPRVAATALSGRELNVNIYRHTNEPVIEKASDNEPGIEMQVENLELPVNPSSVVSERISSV

[4] = biological target: T4, Polyunsaturated fatty acid lipoxygenase ALOX15 (Oryctolagus cuniculus, UniProt P12530); test: biochemical; assay type: tissue-based, Reticulocytes; settings: reticulocytes;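 note: inhibition of 15-lipoxygenase enzyme activity measured with linoleic acid as the substrate; in other assays of this panel Not Active means under 50% inhibition at 10 µM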
T4 sequence (P12530 whole entry): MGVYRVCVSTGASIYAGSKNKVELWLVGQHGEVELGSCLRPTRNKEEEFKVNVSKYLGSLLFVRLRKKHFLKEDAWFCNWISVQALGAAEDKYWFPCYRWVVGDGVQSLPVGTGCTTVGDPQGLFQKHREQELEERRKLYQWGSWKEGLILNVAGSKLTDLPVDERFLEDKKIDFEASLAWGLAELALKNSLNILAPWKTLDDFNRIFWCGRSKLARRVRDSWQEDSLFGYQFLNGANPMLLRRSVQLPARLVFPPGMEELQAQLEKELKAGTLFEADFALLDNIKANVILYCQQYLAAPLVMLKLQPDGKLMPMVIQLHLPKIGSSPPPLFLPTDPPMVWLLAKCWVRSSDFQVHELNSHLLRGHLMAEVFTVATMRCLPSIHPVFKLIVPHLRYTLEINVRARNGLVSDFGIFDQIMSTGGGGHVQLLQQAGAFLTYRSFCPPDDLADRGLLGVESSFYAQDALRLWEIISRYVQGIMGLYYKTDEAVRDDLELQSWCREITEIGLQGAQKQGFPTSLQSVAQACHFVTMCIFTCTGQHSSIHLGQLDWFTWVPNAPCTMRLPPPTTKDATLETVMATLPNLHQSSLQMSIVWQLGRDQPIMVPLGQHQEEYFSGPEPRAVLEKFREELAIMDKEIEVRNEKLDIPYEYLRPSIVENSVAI

Cytochrome P450 2C19 = Cytochrome P450 2C19 (Homo sapiens, UniProt P33261); settings: bti-tn-5b1-4; note: in other assays of this panel Not Active means under 50% inhibition at 10 µM
Sequence of Cytochrome P450 2C19 (P33261 whole entry): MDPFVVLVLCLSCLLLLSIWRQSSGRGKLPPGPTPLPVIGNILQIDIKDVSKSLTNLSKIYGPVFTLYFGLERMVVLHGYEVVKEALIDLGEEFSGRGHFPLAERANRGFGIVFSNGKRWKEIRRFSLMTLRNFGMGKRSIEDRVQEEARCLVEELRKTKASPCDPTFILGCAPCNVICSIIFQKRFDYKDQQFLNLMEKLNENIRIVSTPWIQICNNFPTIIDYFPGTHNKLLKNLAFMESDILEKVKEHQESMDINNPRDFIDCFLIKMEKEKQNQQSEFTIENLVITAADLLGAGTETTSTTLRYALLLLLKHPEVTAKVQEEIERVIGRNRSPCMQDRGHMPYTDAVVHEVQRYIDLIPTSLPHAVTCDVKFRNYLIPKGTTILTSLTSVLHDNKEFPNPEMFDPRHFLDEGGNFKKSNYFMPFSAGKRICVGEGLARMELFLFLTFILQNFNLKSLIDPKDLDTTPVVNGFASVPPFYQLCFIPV

Sequence of Mitogen-activated protein kinase 1 (P28482 whole entry): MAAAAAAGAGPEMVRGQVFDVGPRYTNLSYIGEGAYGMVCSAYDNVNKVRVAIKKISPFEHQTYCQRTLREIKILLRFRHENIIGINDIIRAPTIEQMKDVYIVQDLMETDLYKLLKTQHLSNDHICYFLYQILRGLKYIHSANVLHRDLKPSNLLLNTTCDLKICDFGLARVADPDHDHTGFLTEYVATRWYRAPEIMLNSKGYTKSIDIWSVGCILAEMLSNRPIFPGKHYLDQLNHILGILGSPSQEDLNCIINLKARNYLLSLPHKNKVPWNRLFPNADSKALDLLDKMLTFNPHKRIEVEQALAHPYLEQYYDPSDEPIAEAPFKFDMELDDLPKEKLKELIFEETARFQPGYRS

COc1ccccc1C(=O)N1CCC(Cc2ccccc2)CC1
Not Active: IC50 [1] | IC50 [2] | IC50 (Calcitonin receptor) | IC50 [3] | IC50 [4]

Cc1ccccc1C(=O)N1CCC(Cc2ccccc2)CC1
Not Active: IC50 [1] | IC50 [2] | IC50 (Calcitonin receptor) | IC50 [3] | IC50 [4]

O=C1CC[C@H](N2C(=O)c3ccccc3C2=O)C(=O)N1
Not Active: IC50 [1] | IC50 [2] | IC50 (Calcitonin receptor) | IC50 [3] | IC50 (Cytochrome P450 2C19) | Ki (Cytochrome P450 2C19) | IC50 [4]

N=C(Nc1ccccc1)Nc1ccccc1
Not Active: IC50 [1] | IC50 [2] | IC50 (Calcitonin receptor) | IC50 [3] | IC50 (Cytochrome P450 2C19) | Ki (Cytochrome P450 2C19) | IC50 [4]

C[C@@H](O)[C@H](CO)NC(=O)[C@@H]1CSSC[C@H](NC(=O)[C@H](N)Cc2ccccc2)C(=O)N[C@@H](Cc2ccccc2)C(=O)N[C@H](Cc2c[nH]c3ccccc23)C(=O)N[C@@H](CCCCN)C(=O)N[C@@H]([C@@H](C)O)C(=O)N1 (H-[dF]CF[dW]KTC-{Threoninol(2S,3R)}; disulfide 2-7)
Not Active: IC50 [1] | IC50 [2] | IC50 (Calcitonin receptor) | IC50 [3] | IC50 (Cytochrome P450 2C19) | Ki (Cytochrome P450 2C19) | IC50 [4]

C[C@](O)(CS(=O)(=O)c1ccc(F)cc1)C(=O)Nc1ccc(C#N)c(C(F)(F)F)c1 [(R)-BICALUTAMIDE]
Not Active: IC50 [1] | IC50 [2] | IC50 (Calcitonin receptor) | IC50 [3] | IC50 [4]

O=NN(CCCl)C(=O)NCCCl [CARMUSTINE]
Not Active: IC50 [1] | IC50 [2] | IC50 (Calcitonin receptor) | IC50 [3] | IC50 [4]

CC1=C(C(=O)O)N2C(=O)[C@@H](NC(=O)[C@H](N)c3ccccc3)[C@H]2SC1 [CEPHALEXIN ANHYDROUS]
Not Active: IC50 [1] | IC50 [2] | IC50 (Calcitonin receptor) | IC50 [3] | IC50 [4]

O=C(N[C@H](CO)[C@H](O)c1ccc([N+](=O)[O-])cc1)C(Cl)Cl [CHLORAMPHENICOL]
Not Active: IC50 [1] | IC50 [2] | IC50 (Calcitonin receptor) | IC50 [3] | IC50 [4]

CCOC(=O)C(C)(C)Oc1ccc(Cl)cc1 [CLOFIBRATE]
Not Active: IC50 [1] | IC50 [2] | IC50 (Calcitonin receptor) | IC50 [3] | IC50 [4]

C[C@@H]1C[C@@H]([C@H](O)CC2CC(=O)NC(=O)C2)C(=O)[C@@H](C)C1 [CYCLOHEXIMIDE]
Not Active: IC50 [1] | IC50 [2] | IC50 (Calcitonin receptor) | IC50 [3] | IC50 [4]

C/C=C/C[C@@H](C)[C@@H](O)[C@H]1C(=O)N[C@@H](CC)C(=O)N(C)CC(=O)N(C)[C@@H](CC(C)C)C(=O)N[C@@H](C(C)C)C(=O)N(C)[C@@H](CC(C)C)C(=O)N[C@@H](C)C(=O)N[C@H](C)C(=O)N(C)[C@@H](CC(C)C)C(=O)N(C)[C@@H](CC(C)C)C(=O)N(C)[C@@H](C(C)C)C(=O)N1C [CYCLOSPORINE]
Not Active: IC50 [1] | IC50 [2] | IC50 (Calcitonin receptor) | IC50 [3] | IC50 [4]

NC(=O)NO [HYDROXYUREA]
Not Active: IC50 [1] | IC50 [2] | IC50 (Calcitonin receptor) | IC50 [3] | IC50 [4]

COc1ccc2cc([C@H](C)C(=O)O)ccc2c1 [NAPROXEN]
Not Active: IC50 [1] | IC50 [2] | IC50 (Calcitonin receptor) | IC50 [3] | IC50 [4]

CCN[C@@H]1C[C@H](N)[C@@H](O[C@H]2OC(CN)=CC[C@H]2N)[C@H](O)[C@H]1O[C@H]1OC[C@](C)(O)[C@H](NC)[C@H]1O [NETILMICIN]
Not Active: IC50 [1] | IC50 [2] | IC50 (Calcitonin receptor) | IC50 [3] | IC50 [4]

COC(=O)C1=C(C)NC(C)=C(C(=O)OCC(C)C)C1c1ccccc1[N+](=O)[O-] (stereo unspecified) [NISOLDIPINE]
Not Active: IC50 [1] | IC50 [2] | IC50 (Calcitonin receptor) | IC50 [3] | IC50 [4]

CCOC(=O)C1=C(C)NC(C)=C(C(=O)OC)C1c1cccc([N+](=O)[O-])c1 (stereo unspecified) [NITRENDIPINE]
Not Active: IC50 [1] | IC50 [2] | IC50 (Calcitonin receptor) | IC50 [3] | IC50 [4]

C#C[C@]1(OC(C)=O)CC[C@H]2[C@@H]3CCC4=CC(=O)CC[C@@H]4[C@H]3CC[C@@]21C [NORETHINDRONE ACETATE]
Not Active: IC50 [1] | IC50 [2] | IC50 (Calcitonin receptor) | IC50 [3] | IC50 [4]

CCn1cc(C(=O)O)c(=O)c2cc(F)c(N3CCN(C)CC3)cc21 [PEFLOXACIN]
Not Active: IC50 [1] | IC50 [2] | IC50 (Calcitonin receptor) | IC50 [3] | IC50 [4]

CCCCOc1ccc(OCCCN2CCOCC2)cc1 [PRAMOXINE]
Not Active: IC50 [1] | IC50 [2] | IC50 (Calcitonin receptor) | IC50 [3] | IC50 [4]
